Data taken from PubChem BioAssay (NCI).
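Cells were grown in 96-well plates and exposed to each compound for 48 hours at five concentrations; endpoints were interpolated linearly between bracketing concentrations, or set to the highest concentration if not reached. GI50 is the concentration that inhibits growth by half. TGI is the concentration that stops growth completely.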

Assays:
Assay in all cases: NCI-60 cell line screen, 48 h; in the data active = GI50 below about 0.43 µM; inactive = the rest
RPMI-8226 leukemia = system: RPMI-8226 leukemia
U251 CNS = system: U251 CNS
HCT-116 colon = system: HCT-116 colon
NCI-H226 lung = system: NCI-H226 lung
HCC-2998 colon = system: HCC-2998 colon
UACC-257 melanoma = system: UACC-257 melanoma
M14 melanoma = system: M14 melanoma
CAKI-1 renal = system: CAKI-1 renal
SF-268 CNS = system: SF-268 CNS
MCF7 breast = system: MCF7 breast

CSc1nc(NC2OC(COC(C)=O)C(OC(C)=O)C(OC(C)=O)C2OC(C)=O)c2c(OC(C)=O)c(C)c(=O)oc2n1 (centres undefined)
> 100 µM: TGI (RPMI-8226 leukemia) | TGI (U251 CNS) | TGI (HCT-116 colon) | TGI (NCI-H226 lung) | TGI (HCC-2998 colon) | TGI (UACC-257 melanoma) | TGI (M14 melanoma) | TGI (CAKI-1 renal)

Cc1cc(NS(=O)(=O)c2ccc(NC(=O)c3cccc4c(=O)c5ccccc5[nH]c34)cc2)no1
> 100 µM: TGI (RPMI-8226 leukemia) | TGI (U251 CNS) | TGI (HCT-116 colon) | TGI (NCI-H226 lung) | TGI (HCC-2998 colon) | TGI (UACC-257 melanoma) | TGI (CAKI-1 renal) | TGI (SF-268 CNS)

N#Cc1cnsc1
> 100 µM: TGI (RPMI-8226 leukemia) | TGI (U251 CNS) | TGI (HCT-116 colon) | TGI (NCI-H226 lung) | TGI (HCC-2998 colon) | TGI (UACC-257 melanoma) | TGI (M14 melanoma) | TGI (CAKI-1 renal) | TGI (SF-268 CNS)

C#CC[C@]12CC(=O)CC[C@H]1CC(=O)C2
> 100 µM: TGI (RPMI-8226 leukemia) | TGI (U251 CNS) | TGI (HCT-116 colon) | TGI (NCI-H226 lung) | TGI (HCC-2998 colon) | TGI (UACC-257 melanoma) | TGI (M14 melanoma) | TGI (CAKI-1 renal) | TGI (SF-268 CNS)

NC1C2(CCCCCC2)NC(=O)C12CCCCCC2 (centres undefined)
> 100 µM: TGI (U251 CNS) | TGI (HCT-116 colon) | TGI (UACC-257 melanoma) | TGI (M14 melanoma) | TGI (CAKI-1 renal) | TGI (SF-268 CNS)

COC(=O)C(=O)C(C(=O)C=C(C)C)C(=O)C(=O)Nc1ccc(Cl)cc1C (centres undefined)
> 100 µM: TGI (RPMI-8226 leukemia) | TGI (U251 CNS) | TGI (HCT-116 colon) | TGI (NCI-H226 lung) | TGI (HCC-2998 colon) | TGI (UACC-257 melanoma) | TGI (M14 melanoma) | TGI (CAKI-1 renal) | TGI (SF-268 CNS)

CC(C)CC(N)C(=O)O (centres undefined)
> 100 µM: TGI (RPMI-8226 leukemia) | TGI (U251 CNS) | TGI (MCF7 breast) | TGI (HCT-116 colon) | TGI (NCI-H226 lung) | TGI (UACC-257 melanoma) | TGI (M14 melanoma) | TGI (CAKI-1 renal) | TGI (SF-268 CNS)

O=[N+]([O-])c1ccc2nnnn2c1
50.6 µM: TGI (HCT-116 colon)
47.3 µM: TGI (NCI-H226 lung)
63.1 µM: TGI (CAKI-1 renal)
> 100 µM: TGI (MCF7 breast) | TGI (UACC-257 melanoma) | TGI (M14 melanoma) | TGI (SF-268 CNS)
84.9 µM: TGI (U251 CNS)

CC(=O)NC(CCCN)C(=O)NCc1ccccc1 (centres undefined)
> 100 µM: TGI (RPMI-8226 leukemia) | TGI (U251 CNS) | TGI (HCT-116 colon) | TGI (NCI-H226 lung) | TGI (HCC-2998 colon) | TGI (UACC-257 melanoma) | TGI (M14 melanoma) | TGI (CAKI-1 renal) | TGI (SF-268 CNS)

COc1cc([N+](=O)[O-])ccc1NC(=O)C(F)(F)F
> 100 µM: TGI (RPMI-8226 leukemia) | TGI (U251 CNS) | TGI (MCF7 breast) | TGI (HCT-116 colon) | TGI (NCI-H226 lung) | TGI (UACC-257 melanoma) | TGI (M14 melanoma) | TGI (CAKI-1 renal) | TGI (SF-268 CNS)

O=C(NC1CCCCCC1)C1C(=O)N(C2CCCCCC2)C(=O)/C1=N\O (centres undefined)
31.8 µM: TGI (HCT-116 colon)
> 100 µM: TGI (NCI-H226 lung) | TGI (UACC-257 melanoma) | TGI (M14 melanoma) | TGI (CAKI-1 renal) | TGI (SF-268 CNS)
34.9 µM: TGI (U251 CNS)
83.3 µM: TGI (RPMI-8226 leukemia)
40.2 µM: TGI (HCC-2998 colon)

CC(C)=[CH][Sb]([Br])([CH]=C(C)C)([CH]=C(C)C)[CH]=C(C)C
60.4 µM: TGI (HCT-116 colon)
> 100 µM: TGI (HCC-2998 colon) | TGI (UACC-257 melanoma) | TGI (CAKI-1 renal)
79.3 µM: TGI (U251 CNS)
37.8 µM: TGI (M14 melanoma)
38.4 µM: TGI (RPMI-8226 leukemia)
inactive: GI50 (RPMI-8226 leukemia) 0.781 µM | GI50 (U251 CNS) 12.2 µM | GI50 (HCT-116 colon) 13.9 µM | GI50 (HCC-2998 colon) 26 µM | GI50 (UACC-257 melanoma) 4.87 µM | GI50 (M14 melanoma) 10.1 µM | GI50 (CAKI-1 renal) 46.1 µM | GI50 (SF-268 CNS) 11.7 µM
74.5 µM: TGI (SF-268 CNS)
